This is an account of results in patent US9695171B2, “3,4-disubstituted-1 H-pyrrolo[2,3-b]pyridines and 4,5-disubstituted-7H-pyrrolo[2,3-c]pyridazines as LRRK2 inhibitors” (Pfizer Inc., priority 2013, dated 2017).

The target in this test is T1, GST-tagged truncated LRRK2 (Homo sapiens, UniProt Q5S007).
T1 construct: GST-tagged truncated LRRK2 from Invitrogen (Cat # PV4874); GST; purchased Invitrogen PV4874
The experiment in a line: LRRK2 kinase assay (Lantha Screen). Type of test: biochemical. The note with it: 1 mM ATP (head); a = geometric mean of >=4 determinations, b = single determination; read-out: LRRK2 LANTHA EC50 at 1 mM ATP; Geometric mean of 2-3 determinations unless otherwise indicated. The method, then:
LRRK2 kinase activity was measured using Lantha Screen technology from Invitrogen. GST-tagged truncated LRRK2 from Invitrogen (Cat # PV4874) was incubated with a fluorescein-labeled peptide substrate based upon ezrin/radixin/moesin (ERM), also known as LRRKtide (Invitrogen cat # PR8976A), in the presence of a dose response of compound. Upon completion, the assay was stopped and detected with a terbium labeled anti-phospho-ERM antibody (Invitrogen, cat # PR8975A). […] The compound dose response was prepared by diluting compound to a top concentration of 3.16 mM in 100% DMSO and serial diluted by half-log in DMSO 11 times. Aliquots (3.5 μL) of the 100% DMSO dose response were mixed with 46.5 μL water then 1 μL of this mixture was added to the 3 μL substrate mix in the 384-well plate. The kinase reaction was started with 3 μL of a working solution of LRRK2 enzyme at a concentration of 4 μg/mL. […] The reaction was allowed to progress at room temperature for two hours and then stopped with the addition of 7 μL of detection buffer (20 mM Tris pH 7.6, 0.01% NP-40, 0.02% NaN3, 6 mM EDTA with 2 nM terbium labeled anti-phospho-ERM). After an incubation of 1 hour at room temperature, the plate was read on an Envision with an excitation wavelength of 340 nm and a reading emission at both 520 nm and 495 nm. The ratio of the 520 nm and 495 nm emission was used to analyze the data.

T1 sequence (Q5S007 970-2527 limits assumed): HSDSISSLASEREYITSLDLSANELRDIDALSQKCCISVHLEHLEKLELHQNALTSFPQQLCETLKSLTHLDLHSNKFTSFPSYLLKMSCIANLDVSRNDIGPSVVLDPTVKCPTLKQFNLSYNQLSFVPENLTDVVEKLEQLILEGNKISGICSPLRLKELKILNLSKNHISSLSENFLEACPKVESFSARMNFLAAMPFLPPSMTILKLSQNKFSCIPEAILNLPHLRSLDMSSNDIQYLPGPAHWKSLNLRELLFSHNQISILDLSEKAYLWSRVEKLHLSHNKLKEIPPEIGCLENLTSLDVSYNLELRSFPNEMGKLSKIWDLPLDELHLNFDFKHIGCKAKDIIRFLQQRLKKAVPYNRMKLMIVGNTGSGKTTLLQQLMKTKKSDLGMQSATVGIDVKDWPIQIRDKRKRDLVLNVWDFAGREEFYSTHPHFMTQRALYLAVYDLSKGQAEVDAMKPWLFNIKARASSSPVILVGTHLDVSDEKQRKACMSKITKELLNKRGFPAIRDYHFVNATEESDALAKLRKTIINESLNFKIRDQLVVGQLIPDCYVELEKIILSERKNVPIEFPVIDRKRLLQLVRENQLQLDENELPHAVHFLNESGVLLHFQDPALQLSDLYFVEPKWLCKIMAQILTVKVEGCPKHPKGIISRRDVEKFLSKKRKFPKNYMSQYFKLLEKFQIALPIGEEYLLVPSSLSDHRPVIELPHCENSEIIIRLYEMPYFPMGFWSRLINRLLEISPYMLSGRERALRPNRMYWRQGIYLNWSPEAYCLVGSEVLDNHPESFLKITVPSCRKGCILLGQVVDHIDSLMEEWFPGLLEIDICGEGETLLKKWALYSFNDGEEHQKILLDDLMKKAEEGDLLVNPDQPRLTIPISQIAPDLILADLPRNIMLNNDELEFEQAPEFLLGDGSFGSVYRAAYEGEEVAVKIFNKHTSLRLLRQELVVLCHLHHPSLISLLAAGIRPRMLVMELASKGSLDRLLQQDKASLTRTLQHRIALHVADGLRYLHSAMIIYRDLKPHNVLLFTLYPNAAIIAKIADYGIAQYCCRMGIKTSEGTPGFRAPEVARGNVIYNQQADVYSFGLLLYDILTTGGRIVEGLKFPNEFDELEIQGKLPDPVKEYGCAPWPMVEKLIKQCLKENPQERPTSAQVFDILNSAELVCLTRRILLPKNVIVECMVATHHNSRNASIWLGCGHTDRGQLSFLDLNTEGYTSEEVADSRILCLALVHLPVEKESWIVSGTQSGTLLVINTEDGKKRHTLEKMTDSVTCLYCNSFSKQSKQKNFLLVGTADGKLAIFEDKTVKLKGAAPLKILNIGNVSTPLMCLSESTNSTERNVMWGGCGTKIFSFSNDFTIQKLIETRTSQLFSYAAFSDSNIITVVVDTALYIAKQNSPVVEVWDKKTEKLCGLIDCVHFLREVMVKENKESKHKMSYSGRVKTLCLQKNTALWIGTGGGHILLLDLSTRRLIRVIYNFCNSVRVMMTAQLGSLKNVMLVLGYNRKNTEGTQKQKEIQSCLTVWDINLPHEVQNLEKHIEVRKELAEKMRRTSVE

Broadly, the EC50 is the concentration needed to bring the measured effect to its halfway point. Consider `Fc1c(Cl)cccc1-c1c[nH]c2nccc(N3CCOCC3)c12` [Example 32, 3-(3-chloro-2-fluorophenyl)-4-(morpholin-4-yl)-1H-pyrrolo[2,3-b]pyridine], for which the EC50 was found to be 40.7 nM.

Turning to `Fc1cc(F)c(F)c(-c2c[nH]c3nccc(N4CCOCC4)c23)c1` [Example 33, 4-(morpholin-4-yl)-3-(2,3,5-trifluorophenyl)-1H-pyrrolo[2,3-b]pyridine], the EC50 came to 69.7 nM.

Regarding `Fc1cc(F)cc(-c2c[nH]c3nccc(N4CCOCC4)c23)c1` [Example 34, 3-(3,5-difluorophenyl)-4-(morpholin-4-yl)-1H-pyrrolo[2,3-b]pyridine], the EC50 came to 43.3 nM.

Consider `Clc1ncccc1-c1c[nH]c2nccc(N3CCOCC3)c12` [Example 35, 3-(2-chloropyridin-3-yl)-4-(morpholin-4-yl)-1H-pyrrolo[2,3-b]pyridine], for which the EC50 was 110 nM.

In the case of `c1ccc(-c2c[nH]c3nccc(N4CCOCC4)c23)cc1` [Example 36, 4-(morpholin-4-yl)-3-phenyl-1H-pyrrolo[2,3-b]pyridine], the concentration giving a half-maximal response (EC50) came to 49.7 nM.

Consider `Fc1ccc(-c2c[nH]c3nccc(N4CCOCC4)c23)c(F)c1` [Example 37, 3-(2,4-difluorophenyl)-4-(morpholin-4-yl)-1H-pyrrolo[2,3-b]pyridine], for which the EC50 amounted to 147 nM.

Consider `Cc1cc(F)cc(-c2c[nH]c3nccc(N4CCOCC4)c23)c1` [Example 38, 3-(3-fluoro-5-methylphenyl)-4-(morpholin-4-yl)-1H-pyrrolo[2,3-b]pyridine], for which the half-maximal effective concentration (EC50) was determined as 22.9 nM.

As to `N#Cc1cc(F)cc(-c2c[nH]c3nccc(N4CCOCC4)c23)c1` [Example 39, 3-fluoro-5-[4-(morpholin-4-yl)-1H-pyrrolo[2,3-b]pyridin-3-yl]benzonitrile], the EC50 was found to be 140 nM.

Take `COc1ccc(F)c(F)c1-c1c[nH]c2nccc(N3CCOCC3)c12` [Example 40, 3-(2,3-difluoro-6-methoxyphenyl)-4-(morpholin-4-yl)-1H-pyrrolo[2,3-b]pyridine]: the EC50 came to 105 nM.

Regarding `N#Cc1cc(-c2c[nH]c3nccc(N4CCOCC4)c23)ccc1F` [Example 41, 2-fluoro-5-[4-(morpholin-4-yl)-1H-pyrrolo[2,3-b]pyridin-3-yl]benzonitrile], the EC50 came out at 226 nM.

For the molecule `COc1cncc(-c2c[nH]c3nccc(N4CCOCC4)c23)c1` [Example 42, 3-(5-methoxypyridin-3-yl)-4-(morpholin-4-yl)-1H-pyrrolo[2,3-b]pyridine], the concentration giving a half-maximal response (EC50) was 240 nM.

In the case of `Cc1[nH]c2nccc(N3CCOCC3)c2c1-c1cccc(C#N)n1` [Example 43, 6-[2-methyl-4-(morpholin-4-yl)-1H-pyrrolo[2,3-b]pyridin-3-yl]pyridine-2-carbonitrile], the EC50 amounted to 31.9 nM.

As for `Cn1cc(-c2c[nH]c3ncc(C#N)c(N4CCOCC4)c23)cn1` [Example 44, 3-(1-methyl-1H-pyrazol-4-yl)-4-(morpholin-4-yl)-1H-pyrrolo[2,3-b]pyridine-5-carbonitrile], the EC50 came to 143 nM.

For the molecule `N#Cc1cccc(-c2c[nH]c3ncc(C#N)c(N4CCOCC4)c23)c1F` [Example 45, 3-(3-cyano-2-fluorophenyl)-4-(morpholin-4-yl)-1H-pyrrolo[2,3-b]pyridine-5-carbonitrile], the 50% effective concentration (EC50) is 20.4 nM.

As to `Cc1cc(F)cc(-c2c[nH]c3ncc(C#N)c(N4CCOCC4)c23)c1` [Example 46, 3-(3-fluoro-5-methylphenyl)-4-(morpholin-4-yl)-1H-pyrrolo[2,3-b]pyridine-5-carbonitrile], the 50% effective concentration (EC50) stood at 29.6 nM.

For the molecule `N#Cc1ccc(F)c(-c2c[nH]c3nccc(N4CCOCC4)c23)c1` [Example 47, 4-fluoro-3-[4-(morpholin-4-yl)-1H-pyrrolo[2,3-b]pyridin-3-yl]benzonitrile], the 50% effective concentration (EC50) turned out to be 144 nM.

Turning to `N#Cc1ccc(-c2c[nH]c3nccc(N4CCOCC4)c23)c(F)c1` [Example 48, 3-fluoro-4-[4-(morpholin-4-yl)-1H-pyrrolo[2,3-b]pyridin-3-yl]benzonitrile], the EC50 stood at 217 nM.

As for `N#Cc1cc(CO)cc(-c2c[nH]c3nccc(N4CCOCC4)c23)c1` [Example 49, 3-(hydroxymethyl)-5-[4-(morpholin-4-yl)-1H-pyrrolo[2,3-b]pyridin-3-yl]benzonitrile], the EC50 was determined as 50.8 nM.

With `Fc1ccc(-c2c[nH]c3nccc(N4CCOCC4)c23)cc1` [Example 50, 3-(4-fluorophenyl)-4-(morpholin-4-yl)-1H-pyrrolo[2,3-b]pyridine], the concentration giving a half-maximal response (EC50) is 191 nM.

Turning to `Cc1cncc(-c2c(C)[nH]c3nccc(N4CCOCC4)c23)c1` [Example 51, 2-methyl-3-(5-methylpyridin-3-yl)-4-(morpholin-4-yl)-1H-pyrrolo[2,3-b]pyridine], the EC50 was 191 nM.

Take `Cc1[nH]c2nccc(N3CCOCC3)c2c1-c1cccc(Cl)c1` [Example 52, 3-(3-chlorophenyl)-2-methyl-4-(morpholin-4-yl)-1H-pyrrolo[2,3-b]pyridine]: the EC50 came to 158 nM.

With `Cc1[nH]c2nccc(N3CCOCC3)c2c1-c1ccccc1` [Example 53, 2-methyl-4-(morpholin-4-yl)-3-phenyl-1H-pyrrolo[2,3-b]pyridine], the concentration giving a half-maximal response (EC50) was found to be 201 nM.

For the molecule `Cc1[nH]c2nccc(N3CCOCC3)c2c1-c1ccccc1F` [Example 54, 3-(2-fluorophenyl)-2-methyl-4-(morpholin-4-yl)-1H-pyrrolo[2,3-b]pyridine], the EC50 came to 91.6 nM.

As for `Cc1[nH]c2nccc(N3CCOCC3)c2c1-c1cccc(F)c1` [Example 55, 3-(3-fluorophenyl)-2-methyl-4-(morpholin-4-yl)-1H-pyrrolo[2,3-b]pyridine], the concentration giving a half-maximal response (EC50) amounted to 101 nM.

Turning to `Cc1[nH]c2nccc(N3CCOCC3)c2c1-c1cc(F)cc(C#N)c1` [Example 56, 3-fluoro-5-[2-methyl-4-(morpholin-4-yl)-1H-pyrrolo[2,3-b]pyridin-3-yl]benzonitrile], the concentration for a half-maximal effect (EC50) was found to be 174 nM.

Turning to `Cn1cc(-c2c[nH]c3nccc(N4CCCC(O)C4)c23)cn1` (centres unmarked) [Example 57, 1-[3-(1-methyl-1H-pyrazol-4-yl)-1H-pyrrolo[2,3-b]pyridin-4-yl]piperidin-3-ol], the EC50 amounted to 91.9 nM.

Consider `C[C@H]1CN(c2ccnc3[nH]cc(-c4cnn(C)c4)c23)CCO1` [Example 58, 4-[(2S)-2-methylmorpholin-4-yl]-3-(1-methyl-1H-pyrazol-4-yl)-1H-pyrrolo[2,3-b]pyridine], for which the EC50 is 169 nM.

In the case of `Cn1cc(-c2c[nH]c3nccc(N4CCCC(F)(F)C4)c23)cn1` [Example 59, 4-(3,3-difluoropiperidin-1-yl)-3-(1-methyl-1H-pyrazol-4-yl)-1H-pyrrolo[2,3-b]pyridine], the EC50 turned out to be 197 nM.

For the molecule `Cn1cc(-c2c[nH]c3nccc(N4CCCC(CO)C4)c23)cn1` (centres unmarked) [Example 60, {1-[3-(1-methyl-1H-pyrazol-4-yl)-1H-pyrrolo[2,3-b]pyridin-4-yl]piperidin-3-yl}methanol], the EC50 came to 140 nM.

For `Cn1cc(-c2c[nH]c3nccc(N4C[C@H]5CC[C@@H](C4)O5)c23)cn1` [Example 61, 3-(1-methyl-1H-pyrazol-4-yl)-4-(8-oxa-3-azabicyclo[3.2.1]oct-3-yl)-1H-pyrrolo[2,3-b]pyridine], the EC50 was 221 nM.

For `CN(C)c1ccnc2[nH]cc(-c3cnn(C)c3)c12` [Example 62, N,N-dimethyl-3-(1-methyl-1H-pyrazol-4-yl)-1H-pyrrolo[2,3-b]pyridin-4-amine], the EC50 was 185 nM.

For `Cn1cc(-c2c[nH]c3nccc(N4CCSCC4)c23)cn1` [Example 63, 3-(1-methyl-1H-pyrazol-4-yl)-4-(thiomorpholin-4-yl)-1H-pyrrolo[2,3-b]pyridine], the concentration for a half-maximal effect (EC50) was found to be 71.9 nM.

On to `Cn1cc(-c2c[nH]c3nccc(N4CCC(F)(F)C4)c23)cn1` [Example 64, 4-(3,3-difluoropyrrolidin-1-yl)-3-(1-methyl-1H-pyrazol-4-yl)-1H-pyrrolo[2,3-b]pyridine], for which the EC50 was 195 nM.

For `N#Cc1cccc(-c2c[nH]c3nccc(C4=CCOCC4)c23)c1` [Example 65, 3-[4-(3,6-dihydro-2H-pyran-4-yl)-1H-pyrrolo[2,3-b]pyridin-3-yl]benzonitrile], the EC50 is 7.17 nM.

Regarding `N#Cc1cccc(-c2c[nH]c3nccc(N4CCCC(O)C4)c23)c1` (centres unmarked) [Example 66, 3-[4-(3-hydroxypiperidin-1-yl)-1H-pyrrolo[2,3-b]pyridin-3-yl]benzonitrile], the EC50 stood at 24.3 nM.

As for `COCC1CN(c2ccnc3[nH]cc(-c4cccc(C#N)c4)c23)CCO1` (centres unmarked) [Example 67, 3-{4-[2-(methoxymethyl)morpholin-4-yl]-1H-pyrrolo[2,3-b]pyridin-3-yl}benzonitrile], the EC50 is 22 nM.

`c1cc(N2CCOCC2)c2c(-c3cn[nH]c3)c[nH]c2n1` [Example 68, 4-(morpholin-4-yl)-3-(1H-pyrazol-4-yl)-1H-pyrrolo[2,3-b]pyridine]: the EC50 was determined as 30.5 nM.

Regarding `N#Cc1cccc(-c2c[nH]c3nccc(N4CCCOCC4)c23)c1` [Example 69, 3-[4-(1,4-oxazepan-4-yl)-1H-pyrrolo[2,3-b]pyridin-3-yl]benzonitrile], the EC50 turned out to be 150 nM.
